Results: patent publication US12168673B2 (Mitopower, Inc., priority 2022, dated 2024)

Key:
[1] = Stability in solutions (pH range, simulated gastric fluid, simulated intestinal fluid); type: physicochemical
Protocol: 1 mg/ml solutions of compound 100 were prepared in each buffer, diluted to 0.1 mg/ml in methanol at each time point and analyzed as follows: Gemini C-18, 250×4.6 mm, 5 im, Mobile Phase: Methanol Isocratic Flow Rate: 0.4 mL/min.

Huh-7 Cells = experiment: Cellular NAD+ levels in Huh-7 cells (LCMS/MS); type: cell-based; conditions: 125 μm, four hours of incubation
Protocol: Huh-7 Cells, sourced from NCCS Pune, were cultured in RPMI media containing FBS & Antibiotics. Cells from different flasks (80-90% confluent) were pooled into a 15 mL conical tube and centrifuged for 5 mins at 1200 rpm for 5 mins. The supernatant solution was discarded, and the pellet was washed with 5 mL sterile PBS (without Ca^2+ and Mg^2+). The tube was then centrifuged at 1200 rpm for 5 mins and the supernatant was discarded. The cell pellet was resuspended in 7 mL of RPMI media, and a cell count was done using 10 uL of the cell solution. 1.5 million cells from the cell solution were seeded into 1.5 mL microcentrifuge tubes. […] The tubes were placed in racks and gently swirled to mix the compounds into the media containing the cells. These tubes were then incubated for 4 hours in a 37° C. incubator at 5% CO2. After 4 hours of incubation the cells were spun down at 1000 rpm for 10 mins, the supernatant was discarded carefully, and cells were snap frozen in liquid nitrogen. When the samples were run, the extraction of the cells was on ice, cells were lysed using 20 uL deionized water and then ice cold 80% methanol containing the internal standard—Rac-Tenofovir D was added. The tubes were then vortexed at 2500 rpm for 8 minutes and then centrifuged at […] for 10 minutes. 150 uL of the supernatant was carefully transferred to HPLC vials and was analyzed for NAD^+ on the Abscised 4000 Q Trap LCMS/MS system. A C18, 3.5 μm, 2.1×100 mm, Bridge Column was used in the LC. The mobile phase consisted of 10 mM ammonium acetate with 0.1% acetic acid & 0.1% hexylamine as Solvent-A and 10 mM Ammonium acetate with 0.1% acetic acid and 0.1% hexylamine in 95/5 MeOH/H2O as Solvent-B. The gradient used was 0 mins-0.0% B, 0.5 mins-100% B, 1.5 mins-100% B, 3.0 mins-100% B, 3.1 mins-0.0% B, 7.0-STOP. The column flow rate was 0.5 mL/min. The sample injection volume was […].

[2] = Caco-2 permeability assay; conditions: human
Excerpt: The endpoint measured is the intestinal permeability expressed as apparent permeability—Papp value. All permeability values are represented as ×10^−6 cm/sec.

[3] = Human hepatocyte clearance; type: in vitro ADME; conditions: human hepatocytes, 1 μM
In short: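 Cryopreserved human hepatocytes at a 2 million cell working stock mixed 1:1 with 2 μM compound working stock at 37 °C, in duplicate. Samples quenched in acetonitrile with internal standard at 0, 15, 30, 60 and 90 min, then analysed by LC-MS/MS.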

human hepatocytes = experiment: Human hepatocyte stability

COC(=O)[C@@H](C)NP(=O)(OC[C@H]1OC(OC(=O)c2cccnc2)[C@H](O)[C@@H]1O)Oc1ccccc1 (stereo partly drawn) [Compound 101, (3R, 4S, 5R)-3,4-dihydroxy-5-(((((1-methoxy-1-oxopropan-2-yl)amino)(phenoxy)phosphoryl)oxy)methyl)tetrahydrofuran-2-yl nicotinate]
% remaining ([1]; SGF (simulated gastric fluid), 0 h): 90.17% | % remaining ([1]; SGF (simulated gastric fluid), 1 week): 3.41% | % remaining ([1]; SGF (simulated gastric fluid), 1 h): 88.8% | % remaining ([1]; SGF (simulated gastric fluid), 2 h): 87.74% | % remaining ([1]; SGF (simulated gastric fluid), 4 h): 83.09% | % remaining ([1]; SGF (simulated gastric fluid), 8 h): 77.12% | % remaining ([1]; SGF (simulated gastric fluid), 24 h): 41.98% | % remaining ([1]; SGF (simulated gastric fluid), 48 h): 29.17% | % remaining ([1]; SIF (simulated intestinal fluid), 0 h): 91.59% | % remaining ([1]; SIF (simulated intestinal fluid), 1 week): 76.58% | % remaining ([1]; SIF (simulated intestinal fluid), 1 h): 91.12% | % remaining ([1]; SIF (simulated intestinal fluid), 2 h): 91.16% | % remaining ([1]; SIF (simulated intestinal fluid), 4 h): 90.07% | % remaining ([1]; SIF (simulated intestinal fluid), 8 h): 90.28% | % remaining ([1]; SIF (simulated intestinal fluid), 24 h): 85.29% | % remaining ([1]; SIF (simulated intestinal fluid), 48 h): 85.54% | % remaining ([1]; pH 1, 0 h): 88.03% | % remaining ([1]; pH 1, 1 week): 1.01% | % remaining ([1]; pH 1, 1 h): 85.91% | % remaining ([1]; pH 1, 2 h): 85.4% | % remaining ([1]; pH 1, 4 h): 81.82% | % remaining ([1]; pH 1, 8 h): 74.41% | % remaining ([1]; pH 1, 24 h): 50.26% | % remaining ([1]; pH 1, 48 h): 16.35% | % remaining ([1]; pH 2, 0 h): 88.86% | % remaining ([1]; pH 2, 1 week): 13.5% | % remaining ([1]; pH 2, 1 h): 88.82% | % remaining ([1]; pH 2, 2 h): 87.46% | % remaining ([1]; pH 2, 4 h): 85.16% | % remaining ([1]; pH 2, 8 h): 81.19% | % remaining ([1]; pH 2, 24 h): 63.31% | % remaining ([1]; pH 2, 48 h): 35.33% | % remaining ([1]; pH 4, 0 h): 82.98% | % remaining ([1]; pH 4, 1 week): 37.7% | % remaining ([1]; pH 4, 1 h): 83.96% | % remaining ([1]; pH 4, 2 h): 82.79% | % remaining ([1]; pH 4, 4 h): 81.96% | % remaining ([1]; pH 4, 8 h): 79.6% | % remaining ([1]; pH 4, 24 h): 70.75% | % remaining ([1]; pH 4, 48 h): 69.7% | % remaining ([1]; pH 6, 0 h): 88.78% | % remaining ([1]; pH 6, 1 week): 73.66% | % remaining ([1]; pH 6, 1 h): 88.01% | % remaining ([1]; pH 6, 2 h): 87.98% | % remaining ([1]; pH 6, 4 h): 87.55% | % remaining ([1]; pH 6, 8 h): 86.2% | % remaining ([1]; pH 6, 24 h): 86.09% | % remaining ([1]; pH 6, 48 h): 73.74% | % remaining ([1]; pH 7.4, 0 h): 88.58% | % remaining ([1]; pH 7.4, 1 week): 67.37% | % remaining ([1]; pH 7.4, 1 h): 88.62% | % remaining ([1]; pH 7.4, 2 h): 88.48% | % remaining ([1]; pH 7.4, 4 h): 87.24% | % remaining ([1]; pH 7.4, 8 h): 86.71% | % remaining ([1]; pH 7.4, 24 h): 86.62% | % remaining ([1]; pH 7.4, 48 h): 79.75% | % remaining ([1]; pH 9, 0 h): 90.15% | % remaining ([1]; pH 9, 1 week): 0% | % remaining ([1]; pH 9, 1 h): 80.81% | % remaining ([1]; pH 9, 2 h): 70.65% | % remaining ([1]; pH 9, 4 h): 48.75% | % remaining ([1]; pH 9, 8 h): 26.14% | % remaining ([1]; pH 9, 24 h): 4.45% | % remaining ([1]; pH 9, 48 h): 0% | NAD+ level increase compared to untreated cells (Huh-7 Cells): showed an increase | Papp A→B [2]: 0.2 ×10⁻⁶ cm/s | Papp B→A [2]: 6.1 ×10⁻⁶ cm/s | efflux ratio [2]: 39 | recovery ([2]; Caco-2, % Recovery A to B): 86.5% | recovery ([2]; Caco-2, % Recovery B to A): 87.9% | half-life at 1 μM ([3]; 0-90 min, read-out: T½): 12.8 min | hepatocyte CLint at 1 μM ([3]; read-out: Intrinsic Clearance (CL Int)): 53.9 µL/min/1e6 cells | clearance in human hepatocytes (in words) (human hepatocytes): high clearance | % Parent Remaining (human hepatocytes; 0 mins): 100% | % Parent Remaining (human hepatocytes; 15 mins): 43% | % Parent Remaining (human hepatocytes; 30 mins): 20.1% | % Parent Remaining (human hepatocytes; 60 mins): 6.4% | % Parent Remaining (human hepatocytes; 90 mins): 2.0%
